The molecules below were run on cholesterol absorption from the intestine (assay: In Vivo Assay of Hypolipidemic Agents using the Rat Cholesterol Absorption Model). Conditions: Table 2, perorally, 1 mg/kg, 3H levels in serum three hours after 3H-cholesterol, versus vehicle only control.
Parameters: species or system Female Sprague-Dawley rats
Experimental: In Vivo Assay of Hypolipidemic Agents using the Rat Cholesterol Absorption Model. This model is based on models described by Burnett et al (2002), Bioorg. Med. Chem. Lett. 2002 Feb 11;12(3):315-8 and J. Lipid Res. 1999 Oct;40(10):1747-57. Female Sprague-Dawley rats weighing 150-250g are separated into […] and fasted overnight. The animals (4-6/group) are dosed perorally with 300µL test compounds in olive oil or suitable vehicle. Thirty minutes later, 3-5 microCuries ^3H-cholesterol per rat are delivered perorally in 300 µL olive oil. After three hours, 200 µL serum is collected, vortexed with scintillation fluid, and measured for radioactivity in a scintillation counter. Percent inhibition is defined as 100*(1-Ctest/Cctrl), where Ctest and Cctrl refer to ^3H levels in serum for the test compound and for the vehicle only control, respectively. Percent inhibition values are reported for a fixed dose. The ED50 is the dose at which the half-maximal effect on serum ^3H levels is observed for a given test compound.
Representative compounds of the invention were tested in the Rat Cholesterol Absorption model above.
`O=C1[C@H](CC[C@H](O)c2ccc(F)cc2)[C@@H](c2ccc(-c3cccc(P(=O)(O)O)c3)cc2)N1c1ccccc1` [Example 122, (4'-{(2S,3R)-3-[(3S)-3-(4-fIuorophenyI)-3-hydroxypropyl]-4-oxo-1-phenylazetidin-2-yl}biphenyl-3-yl)phosphonic acid] was tested, and the “% inhibition at 1 mg/kg” value was 67%.

Same assay, conditions: po, Table 1, footnote 1, perorally, 10 mg/kg, 3H levels in serum three hours after 3H-cholesterol
`O=C1[C@H](CC[C@H](O)c2ccc(F)cc2)[C@@H](c2ccc(-c3cccc([N+](=O)[O-])c3)cc2)N1c1ccc(F)cc1` [Example 23, (3R,4S)-1-(4-fluorophenyl)-3-[(3S)-3-(4-fluorophenyl)-3-hydroxypropyl]-4-(3'-nitrobiphenyl-4-yl)azetidin-2-one] gave an inhibition at 10 mg/kg of 54%.

Same assay, conditions: po, Table 1, footnote 2, perorally, 3 mg/kg, 3H levels in serum three hours after 3H-cholesterol
For `CS(=O)(=O)c1cccc(-c2ccc([C@@H]3[C@@H](CC[C@H](O)c4ccc(F)cc4)C(=O)N3c3ccc(F)cc3)cc2)c1` [Example 10, (3R,4S)-1-(4-fluorophenyl)-3-[(3S)-3-(4-fluorophenyl)-3-hydroxypropyl]-4-[3'-(methylsulfonyl)biphenyl-4-yl]azetidin-2-one], the inhibition at 3 mg/kg was 54%.

Same assay, conditions: po, Table 1, perorally, 1 mg/kg, 3H levels in serum three hours after 3H-cholesterol, versus vehicle only control
Work on `CCOc1ccc(-c2ccc([C@@H]3[C@@H](CC[C@H](O)c4ccc(F)cc4)C(=O)N3c3ccc(F)cc3)cc2)cc1` [Example 101, (3R,4S)-4-(4'-ethoxybiphenyl-4-yl)-1-(4-fluorophenyl)-3-[(3S)-3-(4-fluorophenyl)-3-hydroxypropyl]azetidin-2-one] yielded an inhibition at 1 mg/kg of 41%.
For `CN(C)c1ccc(-c2ccc([C@@H]3[C@@H](CC[C@H](O)c4ccc(F)cc4)C(=O)N3c3ccc(F)cc3)cc2)cc1` [Example 17, (3R,4S)-4-[4'(dimethylamino)biphenyl-4-yl]-1-(4-fluorophenyl)-3-[(3S)-3-(4-fluorophenyl)-3-hydroxypropyl]azetidin-2-one], the inhibition at 1 mg/kg was 43%.
Molecule `O=C(O)c1cccc(-c2ccc([C@@H]3[C@@H](CC[C@H](O)c4ccc(F)cc4)C(=O)N3c3ccc(F)cc3)cc2)c1` [Example 21, 4'-{(2S,3R)-1-(4-fluorophenyl)3-[(3S)-3-(4-fluorophenyl)-3-hydroxypropyl]-4-oxoazetidin-2-yl]biphenyl-3-carboxylic acid] has an inhibition at 1 mg/kg of 68%.
Work on `C=Cc1ccc(-c2ccc([C@@H]3[C@@H](CC[C@H](O)c4ccc(F)cc4)C(=O)N3c3ccc(F)cc3)cc2)cc1` [Example 84, (3R,4S)-1-(4-fluorophenyl)-3-[(3S)-3-(4-fluorophenyl)-3-hydroxypropyl]-4-(4'-vinylbiphenyl-4-yl)azetidin-2-one] yielded an inhibition at 1 mg/kg of 51%.
For `O=C1[C@H](CC[C@H](O)c2ccc(F)cc2)[C@@H](c2ccc(-c3cccc(CO)c3)cc2)N1c1ccc(F)cc1` [Example 16, (3R,4S)-1-(4-Fluorophenyl)-3-[(3S)-3-(4-fluorophenyl)-3-hydroxypropyl]-4-(3'-(hydroxymethyl)biphenyl-4-yl)azetidin-2-one], the inhibition at 1 mg/kg was 72%.
In the case of `CSc1cccc(-c2ccc([C@@H]3[C@@H](CC[C@H](O)c4ccc(F)cc4)C(=O)N3c3ccc(F)cc3)cc2)c1` [Example 82, (3R,4S)-1-(4-fluorophenyl)-3-[(3S)-3-(4-fluorophenyl)-3-hydroxypropyl]-4-[3'-(methylthio)biphenyl-4-yl]azetidin-2-one], the inhibition at 1 mg/kg is reported as 28%.
For `O=Cc1cccc(-c2ccc([C@@H]3[C@@H](CC[C@H](O)c4ccc(F)cc4)C(=O)N3c3ccc(F)cc3)cc2)c1` [Example 13, 4'-{(2S,3R)-1-(4-fluorophenyl)-3-[(3S)-3-(4-fluorophenyl)-3-hydroxypropyl]-4-oxoazetidin-2-yl}biphenyl-3-carbaldehyde], the inhibition at 1 mg/kg was 70%.
For `O=C1[C@H](CC[C@H](O)c2ccc(F)cc2)[C@@H](c2ccc(-c3cccc(OC[C@@H](O)[C@@H](O)[C@H](O)[C@@H](O)CO)c3)cc2)N1c1ccc(F)cc1` [Example 78, 6-O-(4'-{(2S,3R)-1-(4-Fluorophenyl)-3-[(3S)-3-(4-fluorophenyl)-3-hydroxypropyl]-4-oxoazetidin-2-yl}biphenyl-3-yl)-D-glucitol], the inhibition at 1 mg/kg was 51%.
Molecule `Cc1cc(C)cc(-c2ccc([C@@H]3[C@@H](CC[C@H](O)c4ccc(F)cc4)C(=O)N3c3ccc(F)cc3)cc2)c1` [Example 90, (3R,4S)-4-(3',5'-dimethylbiphenyl-4-yl)-1-(4-fluorophenyl)-3-[(3S)-3-(4-fluorophenyl)-3-hydroxypropyl]azetidin-2-one] has an inhibition at 1 mg/kg of 27%.
`O=C1[C@H](CC[C@H](O)c2ccc(F)cc2)[C@@H](c2ccc(-c3ccc4ccccc4c3)cc2)N1c1ccc(F)cc1` [Example 91, (3R,4S)-1-(4-fluorophenyl)-3-[(3S)-3-(4-fluorophenyl)-3-hydroxypropyl]-4-[4-(2-naphthyl)phenyl]azetidin-2-one] was tested, and the inhibition at 1 mg/kg was 56%.
For `O=Cc1ccc(O)cc1-c1ccc([C@@H]2[C@@H](CC[C@H](O)c3ccc(F)cc3)C(=O)N2c2ccc(F)cc2)cc1` [Example 104, 4'-{(2S,3R)-1-(4-fluorophenyl)-3-[(3S)-3-(4-fluorophenyl)-3-hydroxypropyl]-4-oxoazetidin-2-yl}-5-hydroxybiphenyl-2-carbaldehyde], the inhibition at 1 mg/kg was 52%.
With `CN(C)c1cccc(-c2ccc([C@@H]3[C@@H](CC[C@H](O)c4ccc(F)cc4)C(=O)N3c3ccc(F)cc3)cc2)c1` [Example 83, (3R,4S)-4-[3'-(dimethylamino)biphenyl-4-yl]-1-(4-fluorophenyl)-3-[(3 S)-3-(4-fluorophenyl)-3-hydroxypropyl]azetidin-2-one] the inhibition at 1 mg/kg was 38%.
`CO[C@H]1O[C@H](COc2cccc(-c3ccc([C@@H]4[C@@H](CC[C@H](O)c5ccc(F)cc5)C(=O)N4c4ccc(F)cc4)cc3)c2)[C@@H](O)[C@H](O)[C@H]1O` [Example 77, methyl 6-O-(4'-{(2S,3R)-1-(4-fluorophenyl)-3-[(3S)-3-(4-fluorophenyl)-3-hydroxypropyl]-4-oxoazetidin-2-yl}biphenyl-3-yl)-α-D-glucopyranoside] showed an inhibition at 1 mg/kg of 70%.
Work on `C[N+](C)(C)c1cccc(-c2ccc([C@@H]3[C@@H](CC[C@H](O)c4ccc(F)cc4)C(=O)N3c3ccc(F)cc3)cc2)c1` [Example 120, 4'-{(2S,3R)-1-(4-fluorophenyl)-3-[(3S)-3-(4-fluorophenyl)-3-hydroxypropyl]-4-oxoazetidin-2-yl}-N,N,N-trimethylbiphenyl-3-aminium] yielded an inhibition at 1 mg/kg of 23%.

Same assay, conditions: po, Table 2, footnote 6, perorally, 0.3 mg/kg
Work on `O=C1[C@H](CC[C@H](O)c2ccc(F)cc2)[C@@H](c2ccc(-c3cccc([C@@H](O)[C@H]4OC(O)[C@H](O)[C@@H](O)[C@@H]4O)c3)cc2)N1c1ccccc1` (stereo partly drawn) [Example 72, (6R)-6-C-(4'-{(2S,3R)-3-[(3S)-3-(4-Fluorophenyl)-3-hydroxypropyl]-4-oxo-1-phenylazetidin-2-yl}biphenyl-3-yl)-D-glucopyranose] yielded an inhibition at 0.3 mg/kg of 27%.

Same assay, conditions: po, Table 2, perorally, 1 mg/kg, 3H levels in serum three hours after 3H-cholesterol, versus vehicle only control
Molecule `O=C1[C@H](CCC(O)c2ccc(F)cc2)[C@@H](c2ccc(-c3cccc(S(=O)(=O)O)c3)cc2O)N1c1ccccc1` (stereo partly drawn) [Example 53, Sodium 4'-{(2S,3R)-3-[(3S/R)-3-(4-fluorophenyl)-3-hydroxypropyl]-4-oxo-1-phenylazetidin-2-yl}-3'-hydroxybiphenyl-3-sulfonate] has an inhibition at 1 mg/kg of 78%.
Molecule `O=C1[C@H](CC[C@H](O)c2ccc(F)cc2)[C@@H](c2ccc(-c3ccc(P(=O)(O)O)cc3)cc2O)N1c1ccccc1` [Example 127, (4'-{(2S,3R)-3-[(3S)-3-(4-Fluorophenyl)-3-hydroxypropyl]-4-oxo-1-phenylazetidin-2-yl}-3'-hydroxybiphenyl-4-yl)phosphonic acid] has an inhibition at 1 mg/kg of 58%.
`O=C1[C@H](CC[C@H](O)c2ccc(F)cc2)[C@@H](c2ccc(-c3cccc(O)c3)cc2O)N1c1ccc(F)cc1` [Example 121, (3R,4S)-4-(3,3'-dihydroxybiphenyl-4-yl)-1-(4-fluorophenyl)-3-[(3S)-3-(4-fluorophenyl)-3-hydroxypropyl]azetidin-2-one] showed an inhibition at 1 mg/kg of 72%.
With `O=C1[C@H](CC[C@H](O)c2ccc(F)cc2)[C@@H](c2ccc(-c3ccc(S(=O)(=O)O)cc3)cc2O)N1c1ccccc1` [Example 128, Sodium 4'-{(2S,3R)-3-[(3S)-3-(4-fluorophenyl)-3-hydroxypropyl]-4-oxo-1-phenylazetidin-2-yl}-3'-hydroxybiphenyl-4-sulfonate] the inhibition at 1 mg/kg was 60%.
In the case of `O=C1[C@H](CC[C@H](O)c2ccc(F)cc2)[C@@H](c2ccc(-c3cccc([C@H](O)[C@H]4OC(O)[C@H](O)[C@@H](O)[C@@H]4O)c3)cc2O)N1c1ccccc1` (stereo partly drawn) [Example 73, (6S)-6-C-(4'-{(2S,3R)-3-[(3S)-3-(4-Fluorophenyl)-3-hydroxypropyl]-4-oxo-1-phenylazetidin-2-yl}-3'-hydroxybiphenyl-3-yl)-D-glucopyranose], the inhibition at 1 mg/kg is reported as 59%.
`O=C1C(CCC(O)c2ccc(F)cc2)C(c2cccc(-c3ccc(O)cc3)c2)N1c1ccc(F)cc1` (stereo not shown) [Example 46] was tested, and the inhibition at 1 mg/kg was 30%.
`O=C1[C@H](CC[C@H](O)c2ccc(F)cc2)[C@@H](c2ccc(-c3ccc(O)cc3)s2)N1c1ccccc1` [Example 51, (3R,4S)-3-[(3S)-3-(4-Fluorophenyl)-3-hydroxypropyl]-4-[5-(4-hydroxyphenyl)-2-thienyl]-1-phenylazetidin-2-one] gave an inhibition at 1 mg/kg of 39%.

Source: patent publication EP1832576A1, “4-Biarylyl-1-phenolyzetidin-2-ones” (Microbia Inc., priority 2003, dated 2005)
